The text below walks through data of US10392383B2, “3-(1H-benzo[d]imidazol-2-yl)-1H-pyrazolo[4,3-b]pyridines and therapeutic uses thereof” (Samumed, LLC, priority 2015, dated 2019).

A value given as a limit tells only on which side of the number the result lay.

Experiment [1] deals with primary human fibroblasts derived from IPF patients (LL29 cells) treated with TGF-β1. Kind of experiment: Inhibition of the fibrotic process: αSMA staining in TGF-β1-treated LL29 fibroblasts. The experiment is classed as cell-based. As to conditions: Fibroblast; for EC50: 96 h, LL29 fibroblasts treated with TGF-β1 (20 ng/mL), 4 days, Table 4; for inhibition at 10 µM: LL29 fibroblasts treated with TGF-β1, Table 4, read-out: percent inhibition at 10 μM (given in parentheses for EC50 >10 μM). The method in brief:
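EC50 from triplicate-well dose-response fits of % αSMA-positive cells, normalized to TGF-β1-stimulated DMSO controls, with SYTOX-positive dead cells excluded. LL29 IPF fibroblasts received compound at 10 μM–1.87 nM (0.1% DMSO) plus 20 ng/mL TGF-β1 for 4 days in 1% FBS medium; above 10 μM, % inhibition at 10 μM reported.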

Experiment [2] concerns SW480 colon cancer cells. In words: Cell viability assay (CellTiter-Blue) in SW480 cells. The format is cell-based. As to conditions: Homo sapiens, 96 h, four days; for EC50: CellTiter-Blue, 10 μM to 0.0045 μM; for inhibition at 10 µM: read-out: percent inhibition at 10 μM (given for EC50 of >10 μM). The method in brief: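 Four-day viability readout in SW480 cells: compound at 0.0045–10 μM (1:3 series), DMSO controls in eight replicates, CellTiter-Blue fluorescence after ~3 h. Values are regression-derived EC50s, or percent inhibition at 10 μM when EC50 exceeds 10 μM.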
For orientation: Alamar Blue is a resazurin reagent that responds to reducing activity.

`CN(C)CCNc1cc(F)cc(-c2cccc3[nH]c(-c4n[nH]c5ccc(-c6cncc(OCc7ccccc7)c6)nc45)nc23)c1` [Compound 790, N^1-(3-(2-(5-(5-(Benzyloxy)pyridin-3-yl)-1H-pyrazolo[4,3-b]pyridin-3-yl)-1H-benzo[d]imidazol-4-yl)-5-fluorophenyl)-N^2,N^2-dimethylethane-1,2-diamine]: the EC50 (in general, the concentration needed to bring the measured effect to its halfway point) in experiment [1] was determined as 798 nM; in experiment [2], 722 nM.

Turning to `CN(C)CCNc1cc(F)cc(-c2cccc3[nH]c(-c4n[nH]c5ccc(-c6cnccn6)nc45)nc23)c1` [Compound 792, N^1-(3-Fluoro-5-(2-(5-(pyrazin-2-yl)-1H-pyrazolo[4,3-b]pyridin-3-yl)-1H-benzo[d]imidazol-4-yl)phenyl)-N^2,N^2-dimethylethane-1,2-diamine], the values for the EC50 in experiment [1] and in experiment [2] were 1900 nM and 4230 nM, respectively.

As for `CN(C)CC(=O)Nc1cncc(-c2ccc3[nH]nc(-c4nc5c(-c6cccc(F)c6)cccc5[nH]4)c3n2)c1` [Compound 969, 2-(Dimethylamino)-N-(5-(3-(4-(3-fluorophenyl)-1H-benzo[d]imidazol-2-yl)-1H-pyrazolo[4,3-b]pyridin-5-yl)pyridin-3-yl)acetamide], the values for the concentration for a half-maximal effect (EC50) in experiment [1] and in experiment [2] were 2070 nM and over 10000 nM, respectively. Besides, the inhibition (usually the percentage by which the read-out fell short of the control) at 10 µM in experiment [2] worked out at 25.3%.

As to `COc1cccc(-c2cccc3[nH]c(-c4n[nH]c5ccc(-c6cccnc6)nc45)nc23)c1` [Compound 994, 3-(4-(3-Methoxyphenyl)-1H-benzo[d]imidazol-2-yl)-5-(pyridin-3-yl)-1H-pyrazolo[4,3-b]pyridine], the EC50 was 1050 nM in experiment [1] and 5940 nM in experiment [2].

For the compound `COc1cccc(-c2cccc3[nH]c(-c4n[nH]c5ccc(-c6cncc(NC(=O)Cc7ccccc7)c6)nc45)nc23)c1` [Compound 1000, N-(5-(3-(4-(3-Methoxyphenyl)-1H-benzo[d]imidazol-2-yl)-1H-pyrazolo[4,3-b]pyridin-5-yl)pyridin-3-yl)-2-phenylacetamide], the EC50 in experiment [1] amounted to 2270 nM; in experiment [2], 4130 nM.

With `COc1cccc(-c2cccc3[nH]c(-c4n[nH]c5ccc(-c6cncc(NC(=O)CC(C)(C)C)c6)nc45)nc23)c1` [Compound 1006, N-(5-(3-(4-(3-methoxyphenyl)-1H-benzo[d]imidazol-2-yl)-1H-pyrazolo[4,3-b]pyridin-5-yl)pyridin-3-yl)-3,3-dimethylbutanamide], in experiment [1], the inhibition at 10 µM was 32.2% and the EC50 is over 10000 nM. The compound also yielded an EC50 in experiment [2] of 5910 nM.

As for `COc1cccc(-c2cccc3[nH]c(-c4n[nH]c5ccc(-c6cncc(NC(=O)C7CCCCC7)c6)nc45)nc23)c1` [Compound 1012, N-(5-(3-(4-(3-Methoxyphenyl)-1H-benzo[d]imidazol-2-yl)-1H-pyrazolo[4,3-b]pyridin-5-yl)pyridin-3-yl)cyclohexanecarboxamide], the values for the inhibition at 10 µM in experiment [1] and in experiment [2] were 36.9% and 4.6%, respectively. The EC50 in experiment [1] and in experiment [2] was over 10000 nM throughout.

In experiment [1], `COc1cccc(-c2cccc3[nH]c(-c4n[nH]c5ccc(-c6cn[nH]c6)nc45)nc23)c1` [Compound 1020, 3-(4-(3-Methoxyphenyl)-1H-benzo[d]imidazol-2-yl)-5-(1H-pyrazol-4-yl)-1H-pyrazolo[4,3-b]pyridine] gave a concentration giving a half-maximal response (EC50) of 372 nM. For the same compound, in experiment [2], the inhibition at 10 µM worked out at 12.6% and the EC50 was over 10000 nM.

On to `COc1cccc(-c2cccc3[nH]c(-c4n[nH]c5ccc(-c6cncc(OC7CCNCC7)c6)nc45)nc23)c1` [Compound 1025, 3-(4-(3-Methoxyphenyl)-1H-benzo[d]imidazol-2-yl)-5-(5-(piperidin-4-yloxy)pyridin-3-yl)-1H-pyrazolo[4,3-b]pyridine], for which the concentration giving a half-maximal response (EC50) turned out to be 2110 nM in experiment [1] and 5740 nM in experiment [2].

In the case of `COc1cccc(-c2cccc3[nH]c(-c4n[nH]c5ccc(-c6cncc(O)c6)nc45)nc23)c1` [Compound 1030, 5-(3-(4-(3-Methoxyphenyl)-1H-benzo[d]imidazol-2-yl)-1H-pyrazolo[4,3-b]pyridin-5-yl)pyridin-3-ol], the EC50 in experiment [1] was 915 nM; in experiment [2], 1010 nM.

Turning to `CC(C)CC(=O)Nc1cncc(-c2ccc3[nH]nc(-c4nc5c(-c6ccc(Cl)s6)cccc5[nH]4)c3n2)c1` [Compound 1037, N-(5-(3-(4-(5-Chlorothiophen-2-yl)-1H-benzo[d]imidazol-2-yl)-1H-pyrazolo [4,3-b]pyridin-5-yl)pyridin-3-yl)-3-methylbutanamide], the EC50 in experiment [1] was determined as 1390 nM; in experiment [2], 9680 nM.

On to `CC(C)(C)C(=O)Nc1cncc(-c2ccc3[nH]nc(-c4nc5c(-c6ccc(Cl)s6)cccc5[nH]4)c3n2)c1` [Compound 1043, N-(5-(3-(4-(5-chlorothiophen-2-yl)-1H-benzo[d]imidazol-2-yl)-1H-pyrazolo[4,3-b]pyridin-5-yl)pyridin-3-yl)pivalamide], for which the concentration for a half-maximal effect (EC50) in experiment [1] was 2330 nM; in experiment [2], 5270 nM.

Turning to `Clc1ccc(-c2cccc3[nH]c(-c4n[nH]c5ccc(-c6cncc(CN7CCCC7)c6)nc45)nc23)s1` [Compound 1049, 3-(4-(5-Chlorothiophen-2-yl)-1H-benzo[d]imidazol-2-yl)-5-(5-(pyrrolidin-1-ylmethyl)pyridin-3-yl)-1H-pyrazolo[4,3-b]pyridine], the results for the EC50 in experiment [1] and in experiment [2] were 733 nM and 584 nM, respectively.

Regarding `O=C(Nc1cncc(-c2ccc3[nH]nc(-c4nc5c(-c6ccc(Cl)s6)cccc5[nH]4)c3n2)c1)C1CCC1` [Compound 1056, N-(5-(3-(4-(5-Chlorothiophen-2-yl)-1H-benzo[d]imidazol-2-yl)-1H-pyrazolo [4,3-b]pyridin-5-yl)pyridin-3-yl)cyclobutanecarboxamide], the concentration for a half-maximal effect (EC50) in experiment [1] is 2360 nM; in experiment [2], over 10000 nM. In addition, the inhibition at 10 µM in experiment [2] turned out to be 0%.

As to `NC1CN(c2cncc(-c3ccc4[nH]nc(-c5nc6c(-c7ccc(Cl)s7)cccc6[nH]5)c4n3)n2)C1` [Compound 1068, 1-(6-(3-(4-(5-Chlorothiophen-2-yl)-1H-benzo[d]imidazol-2-yl)-1H-pyrazolo [4,3-b]pyridin-5-yl)pyrazin-2-yl)azetidin-3-amine], the results for the half-maximal effective concentration (EC50) in experiment [1] and in experiment [2] were 1710 nM and 953 nM, respectively.

Regarding `c1cc(-c2ccc3c(c2)OCO3)c2nc(-c3n[nH]c4ccc(C5CCNCC5)nc34)[nH]c2c1` [Compound 1108, 3-(4-(Benzo[d][1,3]dioxol-5-yl)-1H-benzo[d]imidazol-2-yl)-5-(piperidin-4-yl)-1H-pyrazolo[4,3-b]pyridine], in experiment [1], the inhibition at 10 µM came to 14.1% and the 50% effective concentration (EC50) was over 10000 nM. In experiment [2], this compound registered a half-maximal effective concentration (EC50) of 2280 nM.

Consider `C1=C(c2ccc3[nH]nc(-c4nc5c(-c6ccc7c(c6)OCO7)cccc5[nH]4)c3n2)CCNC1` [Compound 1109, 3-(4-(Benzo[d][1,3]dioxol-5-yl)-1H-benzo[d]imidazol-2-yl)-5-(1,2,3,6-tetrahydropyridin-4-yl)-1H-pyrazolo[4,3-b]pyridine], for which the EC50 was 1590 nM in experiment [1] and 1240 nM in experiment [2].

As to `O=C(Nc1cncc(-c2ccc3[nH]nc(-c4nc5c(-c6ccccc6F)cccc5[nH]4)c3n2)c1)C(F)(F)F` [Compound 1126, 2,2,2-Trifluoro-N-(5-(3-(4-(2-fluorophenyl)-1H-benzo[d]imidazol-2-yl)-1H-pyrazolo[4,3-b]pyridin-5-yl)pyridin-3-yl)acetamide], the half-maximal effective concentration (EC50) in experiment [1] was 2290 nM; in experiment [2], 4360 nM.

As for `CN1CCN(c2cccc3[nH]c(-c4n[nH]c5ccc(-c6cncc(NC(=O)C(F)(F)F)c6)nc45)nc23)CC1` [Compound 1127, 2,2,2-Trifluoro-N-(5-(3-(4-(4-methylpiperazin-1-yl)-1H-benzo[d]imidazol-2-yl)-1H-pyrazolo[4,3-b]pyridin-5-yl)pyridin-3-yl)acetamide], the values for the EC50 in experiment [1] and in experiment [2] were 8310 nM and 9420 nM, respectively.

Turning to `Cn1cc(-c2ccc3[nH]nc(-c4nc5c(-c6ccc(F)cc6)cccc5[nH]4)c3n2)c(CO)n1` [Compound 1129, (4-(3-(4-(4-Fluorophenyl)-1H-benzo[d]imidazol-2-yl)-1H-pyrazolo[4,3-b]pyridin-5-yl)-1-methyl-1H-pyrazol-3-yl)methanol], the EC50 in experiment [1] came to 1200 nM; in experiment [2], 3010 nM.

In the case of `Cn1cc(-c2ccc3[nH]nc(-c4nc5c(N6CCCCC6)cccc5[nH]4)c3n2)c(CO)n1` [Compound 1134, (1-Methyl-4-(3-(4-(piperidin-1-yl)-1H-benzo[d]imidazol-2-yl)-1H-pyrazolo [4,3-b]pyridin-5-yl)-1H-pyrazol-3-yl)methanol], in experiment [1], the inhibition at 10 µM came to 0% and the EC50 was over 10000 nM. In addition, in experiment [2], the inhibition at 10 µM stood at 18.2% and the EC50 was over 10000 nM.

Turning to `Cn1cc(-c2ccc3[nH]nc(-c4nc5c(-c6ccc7c(c6)OCO7)cccc5[nH]4)c3n2)c(CO)n1` [Compound 1152, (4-(3-(4-(Benzo[d][1,3]dioxol-5-yl)-1H-benzo[d]imidazol-2-yl)-1H-pyrazolo[4,3-b]pyridin-5-yl)-1-methyl-1H-pyrazol-3-yl)methanol], the inhibition at 10 µM in experiment [1] is 0%. Moreover, the EC50 in experiment [1] was over 10000 nM; in experiment [2] it was 613 nM.
